Here are results for four compounds from patent US11891405B2, “Furo[3,4-b]pyrrole-containing BTK inhibitor” (CHIA TAI TIANQING PHARMACEUTICAL GROUP CO., LTD., priority 2018, dated 2024).

Series [1] deals with T1, TEC (Homo sapiens, UniProt P42680).
T1 sequence (P42680 1-631): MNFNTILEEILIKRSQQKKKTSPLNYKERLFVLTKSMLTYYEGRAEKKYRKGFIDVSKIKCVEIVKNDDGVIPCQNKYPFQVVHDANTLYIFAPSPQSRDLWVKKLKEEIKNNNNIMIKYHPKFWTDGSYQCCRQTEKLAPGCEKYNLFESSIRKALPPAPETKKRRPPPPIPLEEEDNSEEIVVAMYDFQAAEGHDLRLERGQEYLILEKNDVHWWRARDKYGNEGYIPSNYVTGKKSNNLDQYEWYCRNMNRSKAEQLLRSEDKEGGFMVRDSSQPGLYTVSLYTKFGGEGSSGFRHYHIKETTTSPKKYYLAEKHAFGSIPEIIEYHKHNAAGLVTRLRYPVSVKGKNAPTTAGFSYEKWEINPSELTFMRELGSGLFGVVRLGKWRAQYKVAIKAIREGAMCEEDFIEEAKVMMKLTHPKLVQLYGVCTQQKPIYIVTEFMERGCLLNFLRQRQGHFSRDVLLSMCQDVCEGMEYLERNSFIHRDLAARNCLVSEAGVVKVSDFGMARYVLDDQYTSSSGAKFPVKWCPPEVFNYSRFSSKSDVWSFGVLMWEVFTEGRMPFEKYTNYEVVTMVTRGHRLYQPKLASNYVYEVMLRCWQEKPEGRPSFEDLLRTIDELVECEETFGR
Briefly: Screening for TEC inhibitory activity. The class given is biochemical. On the procedure: 1.3 Screening for TEC Inhibitory Activity
(§1) 50 ng/μL TEC stock solution was diluted with kinase buffer (50 mM HEPES, 10 mM MgCl2, 2 mM DTT, 1 mM EGTA, 0.01% Tween 20), and 6 μL of 1.67× working solution at 0.01336 g/μL (final concentration: 0.008 ng/μL) was added to each well. Different compounds dissolved in DMSO were added to the wells using a nanoliter pipettor, resulting in the final concentration of 1000 nM to 0.24 nM (4-fold gradient for 7 concentrations in total), and blank control wells (without enzyme) and negative control wells (with enzyme, plus vehicle DMSO) were set. After enzyme was reacted with the compound or vehicle for 30 min, 5×ATP at 50 μM (final concentration: 10 μM) prepared with kinase buffer was mixed with 5× substrate at 0.5 μM (final concentration: 0.1 μM, ULight-poly GT) at a ratio of 1:1, and the mixture was added to each well at 4 μL/well. After being sealed with a film, the plate was incubated at room temperature for 2 h, then 5 μL of 4×EDTA at 40 mM (final concentration: 10 mM) was added to each well. After the plate was incubated for 5 min at room temperature, 5 μL of 4× detection reagent at 8 nM (final concentration: 2 nM, Eu-anti-phospho-tyrosine antibody) was added to each well, followed by incubation at room temperature for 1 h. The plate was read using a PE Envision multi-functional microplate reader (excitation: 320 nm, emission: 665 nm), and IC50 was calculated by four-parameter fitting.

For series [2], the target named is T2, ITK (Homo sapiens, UniProt Q08881).
T2 sequence (Q08881 1-620): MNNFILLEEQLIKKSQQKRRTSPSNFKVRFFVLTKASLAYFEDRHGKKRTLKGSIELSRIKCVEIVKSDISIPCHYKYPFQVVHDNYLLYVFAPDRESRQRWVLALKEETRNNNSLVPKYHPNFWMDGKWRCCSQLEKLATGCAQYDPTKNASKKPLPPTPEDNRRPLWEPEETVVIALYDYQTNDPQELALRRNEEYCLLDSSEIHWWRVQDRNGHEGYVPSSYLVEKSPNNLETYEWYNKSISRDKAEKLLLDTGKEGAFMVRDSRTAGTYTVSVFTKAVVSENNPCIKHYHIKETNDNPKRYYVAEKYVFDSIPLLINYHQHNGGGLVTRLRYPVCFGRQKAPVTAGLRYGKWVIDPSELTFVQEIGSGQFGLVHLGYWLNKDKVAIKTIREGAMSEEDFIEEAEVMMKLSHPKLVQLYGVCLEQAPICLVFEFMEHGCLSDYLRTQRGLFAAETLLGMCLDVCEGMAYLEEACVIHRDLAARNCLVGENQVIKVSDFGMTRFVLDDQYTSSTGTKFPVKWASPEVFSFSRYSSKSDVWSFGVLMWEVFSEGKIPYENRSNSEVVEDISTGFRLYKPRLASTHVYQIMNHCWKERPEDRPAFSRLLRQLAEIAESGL
Briefly: Screening for ITK inhibition activity. It counts as biochemical. As for the experimental part: 1.4 Screening for ITK ([…]) Inhibition Activity
as §1, with “ITK” for “TEC”, “[…]” for “0.01336”, “0.05ng/μL)” for “0.008 ng/μL)”, “4×detection” for “4× detection”

The nature of series [3]: Rat liver microsome metabolic stability. It counts as in vitro ADME. The following applies: rat liver microsomes. On the procedure:
3.3 Rat Liver Microsome Assay
300 μL of final incubation system: 30 μL of rat liver microsomes (protein concentration: 5 mg/mL, XENOTECH, USA), 30 μL of NADPH (10 mM)+MgCl2 (5 mM), 3 μL of the substrate, i.e., the example compound (dissolved in 50% aqueous acetonitrile solution, 100 μM), and 237 μL of PBS buffer, wherein the proportion of the organic solvent (acetonitrile) was 0.5%. Each tube was added with 270 μL of a mixed solution of substrate and enzyme, and after being pre-incubated at 37° C. for 5 min, added with 30 μL of NADPH+MgCl2. Then 50 μL of the mixture was taken at 0 min, 15 min, 30 min and 60 min, and added with 300 μL of diazepam glacial acetonitrile (20 ng/mL) containing an internal standard to quench the reaction. The reaction mixture was vortexed for 5 min, and centrifuged (13,000 rpm, 4° C.) for 10 min. 100 μL of supernatant was pipetted into a sample vial, from which 1 μL of supernatant was injected and analyzed by LC-MS/MS, and the remaining percentage was calculated.
Background: Microsomes from liver hold many membrane-bound enzymes, among them those of drug oxidation.

The term IC50 denotes the concentration at which inhibition is half-maximal. High values mean weaker potency, low ones greater potency. Consider `CC#CC(=O)N1[C@@H]2COC[C@@H]2C[C@H]1c1nc(-c2ccc(C(=O)Nc3ccccn3)cc2)c2c(N)nccn12` [Compound I-1, 4-(8-amino-3-((2S,3aR,6aS)-1-(but-2-ynoyl)hexahydro-1H-furo[3,4-b]pyrrol-2-yl)imidazo [1,5-a]pyrazin-1-yl)-N-(pyridin-2-yl)benzamide], for which the IC50 in series [1] is 0.155 µM; in series [2], more than 1 µM. Moreover, in series [3], the “Rat (RLM) Remaining % (T = 60 min)” value is listed as 30%.

For the compound `C=CC(=O)N1[C@@H]2COC[C@@H]2C[C@H]1c1nc(-c2ccc(C(=O)Nc3ccccn3)cc2)c2c(N)nccn12` [Compound I-3, 4-(3-((2S,3AR,6AS)-1-ACRYLOYLHEXAHYDRO-1H-FURO[3,4-B]PYRROL-2-YL)-8-AMINOIMIDAZO [1,5-A]PYRAZIN-1-YL)-N-(PYRIDIN-2-YL)BENZAMIDE], the IC50 was 0.111 µM in series [1] and more than 1 µM in series [2]. Further, the “Rat (RLM) Remaining % (T = 60 min)” value in series [3] worked out at 42%.

For `CC#CC(=O)N1[C@@H]2COC[C@@H]2C[C@H]1c1nc(-c2ccc(C(=O)Nc3cc(C(F)(F)F)ccn3)cc2F)c2c(N)nccn12` [Compound I-4, 4-(8-AMINO-3-((2S,3AR,6AS)-1-(BUT-2-YNOYL)HEXAHYDRO-1H-FURO[3,4-B]PYRROL-2-YL)IMIDAZO[1,5-A]PYRAZIN-1-YL)-3-FLUORO-N-(4-(TRIFLUOROMETHYL)PYRIDIN-2-YL)BENZAMIDE], the IC50 in series [1] was 0.025 µM; in series [2] it was more than 1 µM. Also, the “Rat (RLM) Remaining % (T = 60 min)” value in series [3] stood at 26%.

In series [2], `Nc1nccn2c([C@@H]3C[C@H]4COC[C@H]4N3C(=O)C3CC3)nc(-c3ccc(C(=O)Nc4cc(C(F)(F)F)ccn4)cc3F)c12` [Compound I-7, 4-(8-AMINO-3-((2S,3AR,6AS)-1-(CYCLOPROPANECARBONYL)HEXAHYDRO-1H-FURO[3,4-B]PYRROL-2-YL)IMIDAZO[1,5-A]PYRAZIN-1-YL)-3-FLUORO-N-(4-(TRIFLUOROMETHYL)PYRIDIN-2-YL)BENZAMIDE] displayed an IC50 of more than 1 µM. In addition, the “Rat (RLM) Remaining % (T = 60 min)” value in series [3] stood at 33.9%.
